Source: ChEMBL document CHEMBL4828777, “Effect of the Chromone Core Substitution of Dirchromone on the Resultant Biological Activities” (J Nat Prod, 2021)
pIC50: −log10 of the molar value. In brackets after ≈: the same amount, converted by molar mass.

Columns and labels:
A549 = test: Cytotoxicity against human A549 cells assessed as reduction in cell viability incubated for 48 hrs by Hoechst staining based assay; assay type: functional; conditions: A549, 48 h
DLD-1 = test: Cytotoxicity against human DLD-1 cells assessed as reduction in cell viability incubated for 48 hrs by Hoechst staining based assay; assay type: functional; conditions: DLD-1, 48 h
Candida albicans = test: […] activity against Candida albicans ATCC 10231 assessed as reduction in fungal growth incubated for 24 hrs by microdilution method; assay type: functional
[1] = Cytotoxicity against human WS1 cells assessed as reduction in cell viability incubated for 48 hrs by Hoechst staining based assay; conditions: WS1, 48 h
Staphylococcus aureus = test: Antibacterial activity against Staphylococcus aureus ATCC 25923 assessed as reduction in bacterial growth incubated for 24 hrs by microdilution method; assay type: functional

SMILES	pIC50 (A549)	pIC50 (DLD-1)	MIC90 (Candida albicans)	pIC50 [1]	MIC90 (Staphylococcus aureus)
CC(C)COc1ccc2oc(/C=C/[S+](C)[O-])cc(=O)c2c1 (racemic)	5.96	5.30	13.4 µM (≈ 4.11 µg/mL)	5.92	5.7 µM (≈ 1.75 µg/mL)
COc1cc([C@@H]2c3cc4c(cc3[C@@H](O[C@@H]3O[C@@H]5CO[C@@H](C)O[C@H]5[C@H](O)[C@H]3O)[C@H]3COC(=O)[C@H]23)OCO4)cc(OC)c1O [ETOPOSIDE]	5.32	6.24	–	4.33	–
COc1cccc2c(=O)cc(/C=C/[S+](C)[O-])oc12 (racemic)	5.66	5.05	> 100 µM	5.72	11 µM (≈ 2.91 µg/mL)
C[S+]([O-])/C=C/c1cc(=O)c2cc(O)ccc2o1 (racemic)	4.98	< 5.00	> 100 µM	5.12	24 µM (≈ 6.01 µg/mL)
COc1cccc2oc(/C=C/[S+](C)[O-])cc(=O)c12 (racemic)	5.42	< 5.00	> 100 µM	5.42	43 µM (≈ 11.4 µg/mL)
CC(=O)Oc1ccc2oc(/C=C/[S+](C)[O-])cc(=O)c2c1 (racemic)	5.39	< 5.00	> 100 µM	5.60	11 µM (≈ 3.22 µg/mL)
CCCC(=O)Oc1ccc2oc(/C=C/[S+](C)[O-])cc(=O)c2c1 (racemic)	5.66	5.06	> 100 µM	5.82	7.2 µM (≈ 2.31 µg/mL)
CCCCOc1ccc2oc(/C=C/[S+](C)[O-])cc(=O)c2c1 (racemic)	5.85	5.32	14.1 µM (≈ 4.32 µg/mL)	5.96	5.4 µM (≈ 1.65 µg/mL)
C[S+]([O-])/C=C/c1cc(=O)c2cc(Cl)ccc2o1 (racemic)	5.77	5.19	> 100 µM	5.80	2.7 µM (≈ 0.726 µg/mL)
Cc1ccc2oc(/C=C/[S+](C)[O-])cc(=O)c2c1 (racemic)	5.77	5.15	> 100 µM	5.74	10 µM (≈ 2.48 µg/mL)
Cc1ccc2c(=O)cc(/C=C/[S+](C)[O-])oc2c1 (racemic)	5.70	5.15	> 100 µM	5.72	10 µM (≈ 2.48 µg/mL)
C[S+]([O-])/C=C/c1cc(=O)c2cc(F)ccc2o1 (racemic)	5.68	5.15	> 100 µM	5.77	5.3 µM (≈ 1.34 µg/mL)
C[S+]([O-])/C=C/c1cc(=O)c2c(ccc3ccccc32)o1 (racemic)	6.03	5.37	> 100 µM	6.06	18 µM (≈ 5.12 µg/mL)
Cc1cccc2oc(/C=C/[S+](C)[O-])cc(=O)c12 (racemic)	5.89	5.26	> 100 µM	5.72	23 µM (≈ 5.71 µg/mL)
CCCCC(=O)Oc1ccc2oc(/C=C/[S+](C)[O-])cc(=O)c2c1 (racemic)	5.62	5.17	47 µM (≈ 15.7 µg/mL)	5.74	5.1 µM (≈ 1.71 µg/mL)
C[S+]([O-])/C=C/c1cc(=O)c2ccccc2o1 (racemic)	5.72	5.10	> 100 µM	5.70	9 µM (≈ 2.11 µg/mL)
CC(C)CC(=O)Oc1ccc2oc(/C=C/[S+](C)[O-])cc(=O)c2c1 (racemic)	5.64	5.21	72 µM (≈ 24.1 µg/mL)	5.77	5.1 µM (≈ 1.71 µg/mL)
CCCCCOc1ccc2oc(/C=C/[S+](C)[O-])cc(=O)c2c1 (racemic)	5.80	5.18	7 µM (≈ 2.24 µg/mL)	5.77	4.3 µM (≈ 1.38 µg/mL)
